According to patent US20240101546A1, “HETEROARYL-ACETYLENES, PHARMACEUTICAL COMPOSITIONS THEREOF, AND THEIR THERAPEUTIC APPLICATIONS” (Eubulus Biotherapeutics Inc., priority 2020, published 2024):

system: hepatocellular carcinoma cell line Hub-7; assay: Cell proliferation assay, Hub-7 (CELL-TITER GLO); format: cell-based; conditions: Hub-7 cells, 24 h incubation, cell viability by CELL-TITER GLO, top concentration 10 μM; read-out: EC50, Inhibition of Hub-7 Cell Proliferation
Procedure: The activity of a compound was determined in a cell proliferation assay using the hepatocellular carcinoma cell line Hub-7. Cells (4,000 cells per well) were seeded in a 96-well tissue culture plate. After incubated overnight, the compound was added at predetermined concentrations, starting with 10 μM and followed by 3-fold serial dilution. After the cells were incubated for 24 h, cell viability was determined using a CELL-TITER GLO® assay. The CELL-TITER GLO® reagent (50 μL) was added to each well and the luminescence was measured by a multimode microplate reader after a brief period of shaking. EC50 values were determined for the compound. The results are summarized in Table 1, wherein A represents a value no greater than 200 nM, B represents a value greater than 200 nM but no greater than 1 μM, C represents a value greater than 1 μM but no greater than 5 μM, and D represents a value greater than 5 μM.

| EC50 [nM] | SMILES |
| --- | --- |
| 200 to 1000 | C#Cc1nc(C(=O)NCCc2ccc(-c3cccc4nccnc34)cc2)cs1 [Compound C11, 2-Ethynyl-N-(4-(quinoxalin-5-yl)phenethyl)thiazole-4-carboxamide] |
| 1000 to 5000 | C#Cc1nc(C(=O)NCCc2ccc(-c3ccccc3C(=O)NC)cc2)cs1 [Compound C12, 2-Ethynyl-N-(2-(2′-(methylcarbamoyl)-[1,1′-biphenyl]-4-yl)ethyl)thiazole-4-carboxamide] |
| 200 to 1000 | C#Cc1nc(C(=O)NCCc2ccc(-c3cccc4c3C(=O)NC4)cc2)cs1 [Compound C13, 2-Ethynyl-N-(4-(3-oxoisoindolin-4-yl)phenethyl)thiazole-4-carboxamide] |
| 200 to 1000 | C#Cc1nc(C(=O)NCCc2ccc(-c3cccc4c3C(=O)C(=O)N4)cc2)cs1 [Compound C14, N-(4-(2,3-Dioxoindolin-4-yl)phenethyl)-2-ethynylthiazole-4-carboxamide] |
| 200 to 1000 | C#Cc1nc(C(=O)NCCc2ccc(-c3ccccc3S(C)(=O)=O)cc2)cs1 [Compound C15, 2-Ethynyl-N-(2-(2′-(methylsulfonyl)-[1,1′-biphenyl]-4-yl)ethyl)thiazole-4-carboxamide] |
| 200 to 1000 | C#Cc1nc(C(=O)NCCc2ccc(-c3cccc4ccnc(O)c34)cc2)cs1 [Compound C16, 2-Ethynyl-N-(4-(1-hydroxyisoquinolin-8-yl)phenethyl)thiazole-4-carboxamide] |
| ≤ 200 | C#Cc1nc(C(=O)NCCc2ccc(-c3cccc4c3CNC4=O)cc2)cs1 [Compound C17, 2-Ethynyl-N-(4-(1-oxoisoindolin-4-yl)phenethyl)thiazole-4-carboxamide] |
| 200 to 1000 | C#Cc1nc(C(=O)NCCc2ccc(-c3cccc4c3C(=O)CC4)cc2)cs1 [Compound C18, 2-Ethynyl-N-(4-(3-oxo-2,3-dihydro-1H-inden-4-yl)phenethyl)thiazole-4-carboxamide] |
| 200 to 1000 | C#Cc1nc(C(=O)NCCc2ccc(-c3cncc4ncsc34)cc2)cs1 [Compound C19, 2-Ethynyl-N-(4-(thiazolo[4,5-c]pyridin-7-yl)phenethyl)thiazole-4-carboxamide] |
| 200 to 1000 | C#Cc1nc(C(=O)NCCc2ccc(-c3ccccc3S(=O)(=O)NC)cc2)cs1 [Compound C20, 2-Ethynyl-N-(2-(2′-(N-methylsulfamoyl)-[1,1′-biphenyl]-4-yl)ethyl)thiazole-4-carboxamide] |
| ≤ 200 | C#Cc1nc(C(=O)NCCc2ccc(-c3cccc4cnccc34)cc2)cs1 [Compound C21, 2-Ethynyl-N-(4-(isoquinolin-5-yl)phenethyl)thiazole-4-carboxamide] |
| 200 to 1000 | C#Cc1nc(C(=O)NCCc2ccc(-c3cccc4c3CN(C)C4=O)cc2)cs1 [Compound C22, 2-Ethynyl-N-(4-(2-methyl-1-oxoisoindolin-4-yl)phenethyl)thiazole-4-carboxamide] |
| 200 to 1000 | C#Cc1nc(C(=O)NCCc2ccc(-c3cccc4ncccc34)cc2)cs1 [Compound C23, 2-Ethynyl-N-(4-(quinolin-5-yl)phenethyl)thiazole-4-carboxamide] |
| ≤ 200 | C#Cc1nc(C(=O)NCCc2ccc(-c3cccc4ncncc34)cc2)cs1 [Compound C24, 2-Ethynyl-N-(4-(quinazolin-5-yl)phenethyl)thiazole-4-carboxamide] |
| 200 to 1000 | C#Cc1nc(C(=O)NCCc2ccc(-c3ccc4scnc4c3)cc2)cs1 [Compound C25, N-(4-(Benzo[d]thiazol-5-yl)phenethyl)-2-ethynylthiazole-4-carboxamide] |
| 1000 to 5000 | C#Cc1nc(C(=O)NCCc2cccc(-c3cccc4c3CC(=O)N4C)c2)cs1 [Compound C26, 2-Ethynyl-N-(3-(1-methyl-2-oxoindolin-4-yl)phenethyl)thiazole-4-carboxamide] |
| 200 to 1000 | C#Cc1nc(C(=O)NCCc2cccc(-c3cccc4c3CC(=O)N4)c2)cs1 [Compound C27, 2-Ethynyl-N-(3-(2-oxoindolin-4-yl)phenethyl)thiazole-4-carboxamide] |
| 1000 to 5000 | C#Cc1nc(C(=O)NCc2ccc(-c3cccc4[nH]ccc34)cc2)cs1 [Compound C28, N-(4-(1H-Indol-4-yl)benzyl)-2-ethynylthiazole-4-carboxamide] |
| 200 to 1000 | C#Cc1nc(C(=O)NCCc2cccc(-c3cccc4nn(C)cc34)c2)cs1 [Compound C29, 2-Ethynyl-N-(3-(2-methyl-2H-indazol-4-yl)phenethyl)thiazole-4-carboxamide] |
| 1000 to 5000 | C#Cc1nc(C(=O)NCCc2cccc(-c3cccc4c3cnn4C)c2)cs1 [Compound C30, 2-Ethynyl-N-(3-(1-methyl-1H-indazol-4-yl)phenethyl)thiazole-4-carboxamide] |
| 200 to 1000 | C#Cc1nc(C(=O)NCCc2ccc(-c3cccc4scnc34)cc2)cs1 [Compound C31, N-(4-(Benzo[d]thiazol-4-yl)phenethyl)-2-ethynylthiazole-4-carboxamide] |
| 200 to 1000 | C#Cc1nc(C(=O)NCCc2ccc(-c3cccc4nn(C)cc34)cc2)cs1 [Compound C32, 2-Ethynyl-N-(4-(2-methyl-2H-indazol-4-yl)phenethyl)thiazole-4-carboxamide] |

| EC50 [nM] | SMILES |
| --- | --- |
| 200 to 1000 | C#Cc1nc(C(=O)NCCc2ccc(-c3cccc4c3cnn4C)cc2)cs1 [Compound C33, 2-Ethynyl-N-(4-(1-methyl-1H-indazol-4-yl)phenethyl)thiazole-4-carboxamide] |
| ≤ 200 | C#Cc1nc(C(=O)NCCc2ccc(-c3cccc4ncsc34)cc2)cs1 [Compound C34, N-(4-(Benzo[d]thiazol-7-yl)phenethyl)-2-ethynylthiazole-4-carboxamide] |
| 200 to 1000 | C#Cc1nc(C(=O)NCCc2cccc(-c3cccc4c3ccn4C)c2)cs1 [Compound C35, 2-Ethynyl-N-(3-(1-methyl-1H-indol-4-yl)phenethyl)thiazole-4-carboxamide] |
| 200 to 1000 | C#Cc1nc(C(=O)NCCc2cccc(-c3cccc4[nH]ccc34)c2)cs1 [Compound C36, N-(3-(1H-Indol-4-yl)phenethyl)-2-ethynylthiazole-4-carboxamide] |
| 1000 to 5000 | C#Cc1nc(C(=O)NCc2ccc(-c3cccc4c3CC(=O)N4)cc2)cs1 [Compound C37, 2-Ethynyl-N-(4-(2-oxoindolin-4-yl)benzyl)thiazole-4-carboxamide] |
| 1000 to 5000 | C#Cc1nc(C(=O)NCCc2cccc(-c3cccnc3)c2)cs1 [Compound C38, 2-Ethynyl-N-(3-(pyridin-3-yl)phenethyl)thiazole-4-carboxamide] |
| 200 to 1000 | C#Cc1nc(C(=O)NCCc2cccc(-c3cccc4[nH]ncc34)c2)cs1 [Compound C39, N-(3-(1H-Indazol-4-yl)phenethyl)-2-ethynylthiazole-4-carboxamide] |
| 1000 to 5000 | C#Cc1nc(C(=O)NCc2ccc(-c3cccc4[nH]ncc34)cc2)cs1 [Compound C40, N-(4-(1H-Indazol-4-yl)benzyl)-2-ethynylthiazole-4-carboxamide] |
| 1000 to 5000 | C#Cc1nc(C(=O)NCCc2ccc(-c3ccn(C)n3)cc2)cs1 [Compound C41, 2-Ethynyl-N-(4-(1-methyl-1H-pyrazol-3-yl)phenethyl)thiazole-4-carboxamide] |
| 200 to 1000 | C#Cc1nc(C(=O)NCCc2ccc(-c3ccc4ncsc4c3)cc2)cs1 [Compound C42, N-(4-(Benzo[d]thiazol-6-yl)phenethyl)-2-ethynylthiazole-4-carboxamide] |
| 200 to 1000 | C#Cc1nc(C(=O)NCCc2ccc(-c3cccc4c3CC(=O)N4C)cc2)cs1 [Compound C43, 2-Ethynyl-N-(4-(1-methyl-2-oxoindolin-4-yl)phenethyl)thiazole-4-carboxamide] |
| ≤ 200 | C#Cc1nc(C(=O)NCc2ccc3ccccc3n2)cs1 [Compound C44, 2-ethynyl-N-(quinolin-2-ylmethyl)thiazole-4-carboxamide] |
| 1000 to 5000 | C#Cc1nc(C(=O)NCCc2ccccc2C#N)cs1 [Compound C45, N-(2-Cyanophenethyl)-2-ethynylthiazole-4-carboxamide] |
| 200 to 1000 | C#Cc1nc(C(=O)NCc2cccc(CC(=O)OC)c2)cs1 [Compound C46, Methyl 2-(3-((2-ethynylthiazole-4-carboxamido)methyl)phenyl)acetate] |
| 1000 to 5000 | C#Cc1nc(C(=O)NCc2cccc(CC(N)=O)c2)cs1 [Compound C47, N-(3-(2-Amino-2-oxoethyl)benzyl)-2-ethynylthiazole-4-carboxamide] |
| 200 to 1000 | C#Cc1nc(C(=O)NCCc2ccc(-c3cccc4c3CC(=O)N4)cc2)cs1 [Compound C48, 2-Ethynyl-N-(4-(2-oxoindolin-4-yl)phenethyl)thiazole-4-carboxamide] |
| ≤ 200 | C#Cc1nc(C(=O)NCCc2ccc(-c3cccc4[nH]ncc34)cc2)cs1 [Compound C49, N-(4-(1H-Indazol-4-yl)phenethyl)-2-ethynylthiazole-4-carboxamide] |
| ≤ 200 | C#Cc1nc(C(=O)NCCc2ccc(-c3cccc4c3ccn4C)cc2)cs1 [Compound C50, 2-Ethynyl-N-(4-(1-methyl-1H-indol-4-yl)phenethyl)thiazole-4-carboxamide] |
| 200 to 1000 | C#Cc1nc(C(=O)NCCc2ccc(-c3cccc4[nH]ccc34)cc2)cs1 [Compound C51, N-(4-(1H-Indol-4-yl)phenethyl)-2-ethynylthiazole-4-carboxamide] |
| 200 to 1000 | C#Cc1nc(C(=O)NCc2cccc(Cl)c2)c(C)s1 [Compound C52, N-(3-Chlorobenzyl)-2-ethynyl-5-methylthiazole-4-carboxamide] |
| 200 to 1000 | C#Cc1nc(C(=O)NCCc2ccc(-c3cscn3)cc2)cs1 [Compound C53, 2-Ethynyl-N-(4-(thiazol-4-yl)phenethyl)thiazole-4-carboxamide] |
